“Also recorded” adds a separate entry of the source. Where two headings read alike, the source gives them in different places.
Experiments:
[1] = tested on: C. neoformans; assay type: cell-based, Cryptococcus neoformans
Experimental: (§1) FIG. 1: [A] Treatment of multiple strains of C. neoformans serotype A H99 with fludioxonil (1 ug ml^−1 and 10 ug ml^−1), calcineurin inhibitor FK506, and FK506+Fludioxonil (1 ug ml^−1). [B] Measurement of cell density of multiple strains of C. neoformans representing relative cell growth after incubation of C. neoformans in culture for 72 hours in various fludioxonil concentrations. The following serotype A strains were used for this assay: WT (H99) (♦), and cna1Δ (▴), hog1Δ (□) and cna1Δ hog1Δ (∘) mutant strains. [C] Measurement of WT H99, hog1Δ, and cna1Δ mutants grown for 48 hours exposed to disks containing 10 ug (Fludiox10), 50 ug (Fludiox50), or 100 ug (Fludiox100) of fludioxonil; 2 ug (FK5062) or 20 ug (FK50620) of FK506; 5 ul of 100% ethanol (ETOH) and dimethyl sulfoxide (DMSO).
Additionally, the fractional inhibitory concentration (FIC) was calculated to determine the FIC index, of which a value <1·0 denotes a synergistic interaction.

[2] = tested on: C. neoformans; experiment: NCCLS drug susceptibility assay in liquid medium (MIC80, FIC index, cell density); assay type: cell-based, Cryptococcus neoformans
Experimental: as §1
To quantitatively measure fludioxonil sensitivity, we performed drug susceptibility assays according to NCCLS criteria using a range of fludioxonil concentrations (5 ng ml^−1 to 10 ug ml^−1) to determine the minimum inhibitory concentration (MIC). In this assay, the MIC80 of fludioxonil for the WT strain was <5 ug ml^−1 whereas the MIC80 for the cna1Δ mutant was <100 ng ml^−1 (FIG. 1B and Table 1).

[3] = tested on: C. neoformans; experiment: Fungal growth on YPD agar containing the drug; assay type: cell-based, Cryptococcus neoformans
Experimental: To investigate whether C. neoformans is sensitive to fludioxonil, fungal growth was tested on YPD agar containing the drug. […] To elucidate the role of the HOG pathway in fludioxonil sensitivity, we tested the sensitivity of hog1Δ and pbs2Δ mutants that had been constructed before (Y S Bahn et al., Mol. Biol. Cell. (2005) 16: 2285-2300). […] To examine whether phosphorylation and kinase activity of Hog1 MAPK are required to confer fludioxonil sensitivity, we tested the sensitivity of cells expressing site-directed mutants of Hog1 at the phosphorylation sites (hog1+HOG1^T171A+Y173A) or the catalytic site (hog1+HOG1^K49S+K50N) (FIG. 1A).
(§2) Two C. neoformans serotypes were tested for sensitivity to fludioxonil at 1 μg/ml and 10 μg/ml to determine whether fludioxonil sensitivity is differentially regulated between the two strains and if it is controlled by the HOG pathway. […] S. cerevisiae is resistant to fludioxonil and was used as a control. Thus differential sensitivity to fludioxonil was seen between the two WT serotypes. The hog1Δ mutation in the serotype D strain JEC21 was resistant to fludioxonil, similar to WT JEC21 (FIG. 2). The hog1Δ mutation in the serotype A strain H99 background, however, was resistant to fludioxonil, unlike WT H99 (FIG. 2). This indicates a critical role for the Hog1 pathway in fludioxonil sensitivity.
To determine whether the differential fludioxonil sensitivity observed between the serotype A strain H99 and the serotype D strain JEC21 results from serotype- or strain-specific differences, fludioxonil sensitivity in multiple serotype A and D clinical and environmental strains was investigated. The Hog1 phosphorylation pattern after a 1 hour exposure to fludioxonil was monitored.

[4] = tested on: S. cerevisiae; experiment: Fungal growth on agar containing fludioxonil (control species); assay type: cell-based
Experimental: FIG. 2: Differential fungicidal sensitivity between C. neoformans serotype A strain H99 and serotype D strain JEC21. WT indicates wildtype cells; hog1 indicates a mutant Hog1 gene hog1Δ. S. cerevisiae is used as a control.
as §2

[5] = tested on: C. neoformans; experiment: Minimal fungicidal concentration (MFC), NCCLS criteria; assay type: cell-based; details: Cryptococcus neoformans; WT strain; fludioxonil alone
Description: To determine whether fludioxonil is fungicidal or fungistatic to C. neoformans, minimal fungicidal concentrations (MFCs) were investigated in accordance with the NCCLS criteria (Table 2).

[6] = tested on: Hog1 MAPK; experiment: Hog1 phosphorylation pattern by Western Blot; assay type: cell-based, Cryptococcus neoformans
Description: (§3) FIG. 3: Measurements of Hog1 MAPK activation by rapid dephosphorylation in response to fludioxonil in C. neoformans. Measurements of phosphorylated Hog1 (P-Hog1) and unphosphorylated Hog1 (Hog1) are shown in C. neoformans serotype A strain H99 (H99 WT), H99 cna1Δ, serotype D strain JEC21 (JEC21 WT), and S. cerevisiae. The dual phosphorylation status of Hog1 (T171 and Y173) was monitored using antibody specific for dual phosphorylation of p38 MAPK (P-Hog1). The same blot was stripped and then probed with polyclonal anti-Hog1 antibody as a loading control (Hog1).
FIG. 4: Measurements of fludioxonil sensitivity and Hog1 phosphorylation patterns in response to fludioxonil in various clinical and environmental serotype A [A] and serotype D [B] isolates. Measurements of phosphorylated Hog1 (P-Hog1) and unphosphorylated Hog1 (Hog1) were done using Western Blot analysis.
(§4) To determine how Hog1 is regulated in response to fludioxonil in C. neoformans, Hog1 phosphorylation patterns were monitored by Western Blot analysis in response to fludioxonil. When the serotype A strain H99 was exposed to 1 or 10 ug ml^−1 fludioxonil ml^−1, Hog1 was dephosphorylated within 15 minutes and its dephosphorylation status was maintained for 3 hours (FIG. 3). […] On the other hand, in the serotype D strain JEC21 Hog1 was only slightly phosphorylated under normal conditions, only minimally further phosphorylated if at all after 15 minutes of exposure to fludioxonil, and subsequently maintained in an unphosphorylated state for up to 3 hours (FIG. 3). In contrast, Hog1 was rapidly phosphorylated in response to osmotic shock in strain JEC21.

[7] = tested on: Hog1; experiment: Hog1 phosphorylation pattern by Western Blot; assay type: cell-based; details: S. cerevisiae
Description: as §3, §4

[8] = tested on: C. neoformans; experiment: Microscopic observation of cell morphology after fludioxonil; assay type: cell-based, Cryptococcus neoformans
Experimental: (§5) FIG. 6: [A] Measurements of morphological changes in response to fludioxonil treatment (10 ug ml^−1 for 48 hours) in serotype A H99 WT [A-b], cna1Δ [A-c], and hog1Δ [A-d]. As a control, serotype A H99 WT was grown without fludioxonil [A-a]. Cells were then observed by microscopy (bar=20 um). [B] Measurements of glycerol content in cell extracts in response to fludioxonil treatment in serotype A WT strain H99, cna1Δ, hog1Δ, and the serotype D WT strain JEC21. Cells were grown to mid-exponential phase and then incubated in 10 ug fludioxonil ml^−1 for the time indicated. Glycerol content in cell extracts was measured by a UV-glycerol assay procedure and normalized to dry cell weight. Two individual experiments were performed and standard deviations are presented as error bars.
We microscopically observed cells after exposure to fludioxonil. […] As expected, the morphology of JEC21 cells was not affected by fludioxonil.

[9] = tested on: C. neoformans; experiment: Glycerol content in cell extracts (UV-glycerol assay); assay type: cell-based, Cryptococcus neoformans
Experimental: as §5
We measured the glycerol content in C. neoformans after fludioxonil treatment for 1 and 3 hours (FIG. 6B). […] Increased intracellular glycerol levels may trigger non-physiological levels of water influx into the cell, resulting in cell swelling and growth inhibition. […] Alternatively, the cna1Δ mutant cells could be rapidly killed by Hog1 activation prior to accumulating glycerol, because fludioxonil has a fungicidal effect on the cna1Δ mutant (Table 1).

[10] = WT strain H99, fludioxonil disk 100 ug
[11] = serotype A strain H99, 1 or 10 ug ml^−1 fludioxonil

## C=CC[C@@H]1/C=C(\C)C[C@H](C)C[C@H](OC)[C@H]2O[C@@](O)(C(=O)C(=O)N3CCCC[C@H]3C(=O)O[C@H](/C(C)=C/[C@@H]3CC[C@@H](O)[C@H](OC)C3)[C@H](C)[C@@H](O)CC1=O)[C@H](C)C[C@@H]2OC [FK506]
[1]; [10]
  halo / growth inhibition around disk: not inhibited

## N#Cc1c[nH]cc1-c1cccc2c1OC(F)(F)O2 [fludioxonil, 4-(2,2-difluoro-1,3-benzodioxol-4-yl)pyrrole-3-carbonitrile]
[2]; Cryptococcus neoformans, WT strain, read-out: MIC80
  MIC80: < 5 µg/mL
[2]; cna1Δ hog1Δ double mutant
  fludioxonil sensitivity (cell growth, FIG. 1B): complete resistance
[2]; cna1Δ mutant
  MIC80: < 0.1 µg/mL
[2]; hog1Δ and cna1Δ hog1Δ mutants, even with 10 ug fludioxonil ml^−1
  growth in liquid culture: modest reduction of growth, but still showed robust resistance
[3]; 12 independently derived AD hybrid strains
  fludioxonil sensitivity: resistance similar to the parental strain JEC171
[3]; WT serotype D strain JEC21, 1 μg/ml and 10 μg/ml
  growth on agar containing drug: complete resistance
[3]; cna1Δ and cnb1Δ mutants (H99 background)
  growth on agar containing drug: hypersensitivity
[3]; hog1+HOG1^T171A+Y173A and hog1+HOG1^K49S+K50N site-directed mutants
  growth on agar containing drug: as resistant to fludioxonil as the hog1Δ mutant
[3]; hog1Δ mutant (H99 background)
  growth on agar containing drug: complete resistance; also recorded: resistant
[3]; hog1Δ mutation in serotype D strain JEC21
  growth on agar containing drug: resistant
[3]; mpk1Δ mutant
  fludioxonil sensitivity: hypersensitivity
[3]; mpk1Δ, mkk1Δ, bck1Δ mutants, supplementation with 1M sorbitol
  growth defect in response to fludioxonil with osmotic stabilizer: partially rescued the growth defect
[3]; mutants lacking MKK1 and BCK1 genes
  fludioxonil sensitivity: hypersensitivity
[3]; parental serotype A H99 (ura5)
  fludioxonil sensitivity: sensitivity
[3]; parental serotype D JEC171 (ade2 lys2)
  fludioxonil sensitivity: resistance
[3]; pbs2Δ mutant (H99 background)
  growth on agar containing drug: complete resistance
[3]; serotype A clinical and environmental strains
  strains sensitive to fludioxonil: 8 of 10
[3]; serotype A strains IN-38 and UG-20020, serotype D strains NIH433, JEC21, MMRL757
  fludioxonil sensitivity: clear resistance
[3]; serotype A wild-type (WT) strain H99, fludioxonil 1 and 10 ug ml^−1
  growth on agar containing drug: severely inhibited growth; also recorded: sensitivity
[3]; serotype D clinical and environmental strains
  strains sensitive to fludioxonil: 6 of 9
[4]
  growth on agar containing drug: resistant
[1]; [10]
  halo / growth inhibition around disk: only modest growth inhibition
[1]; cna1Δ strain, disks with 10, 50, or 100 ug fludioxonil
  halo / growth inhibition around disk: large haloes
[5]
  MFC: > 10 µg/mL
[6]; cna1Δ mutant, 1 ug or 10 ug fludioxonil ml^−1
  Hog1 phosphorylation pattern: almost identical to that observed in the wild-type strain
[6]; resistant clinical/environmental strains, 1 hour incubation
  Hog1 activation in response to fludioxonil: not activated
[6]; [11]
  Hog1 dephosphorylation status maintained: 3 h
  time to Hog1 dephosphorylation: ≤ 15 min
[6]; serotype D strain JEC21
  Hog1 activation in response to fludioxonil: only minimally activated, if at all
[7]
  Hog1 activation in response to fludioxonil: completely inactive
[8]; JEC21 cells
  cell morphology: not affected
[8]; WT H99, 10 ug ml^−1 for 48 hours
  cell morphology: some cells were swollen, and interestingly were often attached to each other
[8]; cna1Δ mutant, 10 ug ml^−1 for 48 hours
  cell morphology: even more severe cytokinesis defect
[8]; hog1Δ mutant, 10 ug ml^−1 for 48 hours
  cell morphology: no swollen morphology or defects in cell division
[9]; WT strain H99, 10 ug fludioxonil ml^−1, 1 and 3 hours
  glycerol content: increased after 1 hour exposure, and to an even greater extent after 3 hour incubation
[9]; cna1Δ mutant, 10 ug fludioxonil ml^−1, 1 and 3 hours
  glycerol content: increased following 1 hour treatment with fludioxonil but accumulation levels at 3 hours were lower than those of the WT
[9]; hog1Δ mutant, 10 ug fludioxonil ml^−1, 1 and 3 hours
  glycerol content: no increase in glycerol
[9]; serotype D strain JEC21, 10 ug fludioxonil ml^−1
  glycerol content: little or no glycerol
